System: plants
Test: Test D pre-emergence, other plants of Tables D1 and D3
Type: in vivo
Conditions: for damage to plant (100=total damage to plant; 0=no damage to plant), ABUTH / damage to plant (100=total damage to plant; 0=no damage to plant), BIDPI / damage to plant (100=total damage to plant; 0=no damage to plant), BRAPL / damage to plant (100=total damage to plant; 0=no damage to plant), CYPES / damage to plant (100=total damage to plant; 0=no damage to plant), DIGSA / damage to plant (100=total damage to plant; 0=no damage to plant), ECHCG / damage to plant (100=total damage to plant; 0=no damage to plant), ELEIN / damage to plant (100=total damage to plant; 0=no damage to plant), EPHHL / damage to plant (100=total damage to plant; 0=no damage to plant), GLXMA / damage to plant (100=total damage to plant; 0=no damage to plant), IPOHE / damage to plant (100=total damage to plant; 0=no damage to plant), ORYSA / damage to plant (100=total damage to plant; 0=no damage to plant), PANMI / damage to plant (100=total damage to plant; 0=no damage to plant), SETFA / damage to plant (100=total damage to plant; 0=no damage to plant), SIDSP / damage to plant (100=total damage to plant; 0=no damage to plant), SORVU: preemergent, 20 DAA; for damage to plant, ALOMY / damage to plant, AVEFA / damage to plant, BEAVA / damage to plant, BROTE / damage to plant, BRSNN / damage to plant, CHEAL / damage to plant, GALAP / damage to plant, HORVW / damage to plant, KCHSC / damage to plant, LOLPE / damage to plant, POAAN / damage to plant, POLCO / damage to plant, SINAR / damage to plant, STEME / damage to plant, VERPE: pre-emergence, 100=total damage, 0=no damage
Procedure, shortened: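 Seeds treated with herbicide safener; sown in soil; glasshouse, 16 h light, 65% humidity. Sprayed day 1 (pre) or ~day 12 (post). Spray in 0.2% v/v adjuvant. Scored 0–100 damage: 20 DAA pre, 15 d post.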

## CCn1nc([C@H]2CN(C)C(=O)[C@@H]2C(=O)Nc2cccc(F)c2F)c2ccc(F)cc21 [Compound 4]
Rate 15
  damage to plant (100=total damage to plant; 0=no damage to plant), ABUTH: 0
  damage to plant (100=total damage to plant; 0=no damage to plant), BIDPI: 0
  damage to plant (100=total damage to plant; 0=no damage to plant), BRAPL: 40
  damage to plant (100=total damage to plant; 0=no damage to plant), CYPES: 0
  damage to plant (100=total damage to plant; 0=no damage to plant), DIGSA: 0
  damage to plant (100=total damage to plant; 0=no damage to plant), ECHCG: 0
  damage to plant (100=total damage to plant; 0=no damage to plant), ELEIN: 0
  damage to plant (100=total damage to plant; 0=no damage to plant), EPHHL: 0
  damage to plant (100=total damage to plant; 0=no damage to plant), GLXMA: 0
  damage to plant (100=total damage to plant; 0=no damage to plant), IPOHE: 0
  damage to plant (100=total damage to plant; 0=no damage to plant), ORYSA: 0
  damage to plant (100=total damage to plant; 0=no damage to plant), PANMI: 0
  damage to plant (100=total damage to plant; 0=no damage to plant), SETFA: 10
  damage to plant (100=total damage to plant; 0=no damage to plant), SIDSP: 0
  damage to plant (100=total damage to plant; 0=no damage to plant), SORVU: 0
Rate 30
  damage to plant (100=total damage to plant; 0=no damage to plant), ABUTH: 0
  damage to plant (100=total damage to plant; 0=no damage to plant), BIDPI: 0
  damage to plant (100=total damage to plant; 0=no damage to plant), BRAPL: 40
  damage to plant (100=total damage to plant; 0=no damage to plant), CYPES: 0
  damage to plant (100=total damage to plant; 0=no damage to plant), DIGSA: 60
  damage to plant (100=total damage to plant; 0=no damage to plant), ECHCG: 40
  damage to plant (100=total damage to plant; 0=no damage to plant), ELEIN: 0
  damage to plant (100=total damage to plant; 0=no damage to plant), EPHHL: 0
  damage to plant (100=total damage to plant; 0=no damage to plant), GLXMA: 0
  damage to plant (100=total damage to plant; 0=no damage to plant), IPOHE: 0
  damage to plant (100=total damage to plant; 0=no damage to plant), ORYSA: 0
  damage to plant (100=total damage to plant; 0=no damage to plant), PANMI: 0
  damage to plant (100=total damage to plant; 0=no damage to plant), SETFA: 70
  damage to plant (100=total damage to plant; 0=no damage to plant), SIDSP: 0
  damage to plant (100=total damage to plant; 0=no damage to plant), SORVU: 0
Rate 60
  damage to plant (100=total damage to plant; 0=no damage to plant), ABUTH: 0
  damage to plant (100=total damage to plant; 0=no damage to plant), BIDPI: 0
  damage to plant (100=total damage to plant; 0=no damage to plant), BRAPL: 60
  damage to plant (100=total damage to plant; 0=no damage to plant), CYPES: 0
  damage to plant (100=total damage to plant; 0=no damage to plant), DIGSA: 80
  damage to plant (100=total damage to plant; 0=no damage to plant), ECHCG: 80
  damage to plant (100=total damage to plant; 0=no damage to plant), EPHHL: 0
  damage to plant (100=total damage to plant; 0=no damage to plant), GLXMA: 0
  damage to plant (100=total damage to plant; 0=no damage to plant), IPOHE: 0
  damage to plant (100=total damage to plant; 0=no damage to plant), ORYSA: 0
  damage to plant (100=total damage to plant; 0=no damage to plant), PANMI: 0
  damage to plant (100=total damage to plant; 0=no damage to plant), SETFA: 70
  damage to plant (100=total damage to plant; 0=no damage to plant), SIDSP: 0
  damage to plant (100=total damage to plant; 0=no damage to plant), SORVU: 10
Rate 130
  damage to plant (100=total damage to plant; 0=no damage to plant), ABUTH: 0
  damage to plant (100=total damage to plant; 0=no damage to plant), BIDPI: 0
  damage to plant (100=total damage to plant; 0=no damage to plant), BRAPL: 80
  damage to plant (100=total damage to plant; 0=no damage to plant), CYPES: 0
  damage to plant (100=total damage to plant; 0=no damage to plant), DIGSA: 90
  damage to plant (100=total damage to plant; 0=no damage to plant), ECHCG: 90
  damage to plant (100=total damage to plant; 0=no damage to plant), EPHHL: 0
  damage to plant (100=total damage to plant; 0=no damage to plant), GLXMA: 0
  damage to plant (100=total damage to plant; 0=no damage to plant), IPOHE: 0
  damage to plant (100=total damage to plant; 0=no damage to plant), ORYSA: 0
  damage to plant (100=total damage to plant; 0=no damage to plant), PANMI: 0
  damage to plant (100=total damage to plant; 0=no damage to plant), SETFA: 80
  damage to plant (100=total damage to plant; 0=no damage to plant), SORVU: 10
Rate 250
  damage to plant (100=total damage to plant; 0=no damage to plant), ABUTH: 0
  damage to plant (100=total damage to plant; 0=no damage to plant), BIDPI: 0
  damage to plant (100=total damage to plant; 0=no damage to plant), BRAPL: 90
  damage to plant (100=total damage to plant; 0=no damage to plant), CYPES: 0
  damage to plant (100=total damage to plant; 0=no damage to plant), DIGSA: 90
  damage to plant (100=total damage to plant; 0=no damage to plant), ECHCG: 90
  damage to plant (100=total damage to plant; 0=no damage to plant), ELEIN: 10
  damage to plant (100=total damage to plant; 0=no damage to plant), EPHHL: 0
  damage to plant (100=total damage to plant; 0=no damage to plant), GLXMA: 0
  damage to plant (100=total damage to plant; 0=no damage to plant), IPOHE: 0
  damage to plant (100=total damage to plant; 0=no damage to plant), ORYSA: 0
  damage to plant (100=total damage to plant; 0=no damage to plant), PANMI: 20
  damage to plant (100=total damage to plant; 0=no damage to plant), SETFA: 90
  damage to plant (100=total damage to plant; 0=no damage to plant), SORVU: 40
Rate 500
  damage to plant (100=total damage to plant; 0=no damage to plant), ABUTH: 0
  damage to plant (100=total damage to plant; 0=no damage to plant), BIDPI: 0
  damage to plant (100=total damage to plant; 0=no damage to plant), BRAPL: 90
  damage to plant (100=total damage to plant; 0=no damage to plant), CYPES: 0
  damage to plant (100=total damage to plant; 0=no damage to plant), DIGSA: 90
  damage to plant (100=total damage to plant; 0=no damage to plant), ECHCG: 90
  damage to plant (100=total damage to plant; 0=no damage to plant), ELEIN: 10
  damage to plant (100=total damage to plant; 0=no damage to plant), EPHHL: 10
  damage to plant (100=total damage to plant; 0=no damage to plant), GLXMA: 0
  damage to plant (100=total damage to plant; 0=no damage to plant), IPOHE: 10
  damage to plant (100=total damage to plant; 0=no damage to plant), ORYSA: 0
  damage to plant (100=total damage to plant; 0=no damage to plant), PANMI: 40
  damage to plant (100=total damage to plant; 0=no damage to plant), SETFA: 90
  damage to plant (100=total damage to plant; 0=no damage to plant), SIDSP: 0
  damage to plant (100=total damage to plant; 0=no damage to plant), SORVU: 50
Rate 15, 20 DAA
  damage to plant, ALOMY: 0
  damage to plant, AVEFA: 0
  damage to plant, BEAVA: 0
  damage to plant, BROTE: 0
  damage to plant, BRSNN: 0
  damage to plant, CHEAL: 0
  damage to plant, GALAP: 0
  damage to plant, HORVW: 0
  damage to plant, KCHSC: 0
  damage to plant, LOLPE: 0
  damage to plant, POAAN: 0
  damage to plant, POLCO: 0
  damage to plant, SINAR: 0
  damage to plant, STEME: 0
  damage to plant, VERPE: 0
Rate 30, 20 DAA
  damage to plant, ALOMY: 0
  damage to plant, AVEFA: 0
  damage to plant, BEAVA: 0
  damage to plant, BROTE: 0
  damage to plant, BRSNN: 0
  damage to plant, CHEAL: 0
  damage to plant, GALAP: 0
  damage to plant, HORVW: 0
  damage to plant, KCHSC: 0
  damage to plant, LOLPE: 0
  damage to plant, POAAN: 0
  damage to plant, POLCO: 0
  damage to plant, SINAR: 0
  damage to plant, STEME: 0
  damage to plant, VERPE: 0
Rate 60, 20 DAA
  damage to plant, ALOMY: 0
  damage to plant, AVEFA: 0
  damage to plant, BEAVA: 0
  damage to plant, BROTE: 0
  damage to plant, BRSNN: 0
  damage to plant, CHEAL: 0
  damage to plant, GALAP: 0
  damage to plant, HORVW: 0
  damage to plant, KCHSC: 0
  damage to plant, LOLPE: 0
  damage to plant, POAAN: 40
  damage to plant, POLCO: 0
  damage to plant, SINAR: 0
  damage to plant, STEME: 0
  damage to plant, VERPE: 0
Rate 130, 20 DAA
  damage to plant, ALOMY: 0
  damage to plant, AVEFA: 0
  damage to plant, BEAVA: 0
  damage to plant, BROTE: 0
  damage to plant, BRSNN: 0
  damage to plant, CHEAL: 0
  damage to plant, GALAP: 0
  damage to plant, HORVW: 0
  damage to plant, KCHSC: 0
  damage to plant, LOLPE: 0
  damage to plant, POAAN: 50
  damage to plant, POLCO: 0
  damage to plant, SINAR: 0
  damage to plant, STEME: 0
  damage to plant, VERPE: 0
Rate 250, 20 DAA
  damage to plant, ALOMY: 0
  damage to plant, AVEFA: 0
  damage to plant, BEAVA: 0
  damage to plant, BROTE: 0
  damage to plant, BRSNN: 0
  damage to plant, CHEAL: 0
  damage to plant, GALAP: 0
  damage to plant, HORVW: 0
  damage to plant, KCHSC: 0
  damage to plant, LOLPE: 0
  damage to plant, POAAN: 80
  damage to plant, POLCO: 0
  damage to plant, SINAR: 0
  damage to plant, STEME: 0
  damage to plant, VERPE: 0
Rate 500, 20 DAA
  damage to plant, ALOMY: 40
  damage to plant, AVEFA: 10
  damage to plant, BEAVA: 0
  damage to plant, BROTE: 10
  damage to plant, BRSNN: 10
  damage to plant, CHEAL: 0
  damage to plant, GALAP: 0
  damage to plant, HORVW: 20
  damage to plant, KCHSC: 0
  damage to plant, LOLPE: 0
  damage to plant, POAAN: 90
  damage to plant, POLCO: 20
  damage to plant, SINAR: 30
  damage to plant, STEME: 0
  damage to plant, VERPE: 0
